Reference: US20220062247A1, “USE OF A PAR-1 ANTAGONIST FOR THE TREATMENT OF A CHRONIC INFLAMMATORY INTESTINAL DISEASE” (CVASTHERA, priority 2018, published 2022)

Tests used:
[1] = system: induced colitis; settings: induced colitis model in mice, by reducing the inflammation phenomenon; cited from earlier work
[2] = system: inflammatory bowel disease induced by 2,4,6-trinitrobenzenesulfonic acid (TNBS); assay: Colitis induced by intra-colonical TNBS in rats (body weight, DAI score, colon wall thickness, macroscopic damage score, MPO); format: in vivo, male laboratory rat of the Wistar strain
Description: The purpose of this study is to assess the effectiveness of two PAR-1 antagonists, vorapaxar and 3-2-(chloro-phenyl)-1-[4-(4-fluoro-benzyl)-piperazine-1-yl]propenone (hereinafter, referred to as CSI) in a model of an inflammatory bowel disease induced by 2,4,6-trinitrobenzenesulfonic acid (TNBS) in a male laboratory rat of the Wistar strain. This model is described in the publication of Whittle et al., 2003, in Methods Mol. Biol., 225, 209-222.
In this induced colitis model, the inflammatory reaction is measured every day and is well established 7 days after intra-colonical administration of TNBS.
(§1) Different parameters are measured: the weight of the rats, the presence of blood in the faeces and the diarrhoeas assessed by the disease activity index (DAI score), the intensity of pain (assessed by Von Frey filaments technique measured on days 3 and 7).
The rats are sacrificed 7 days after the beginning of the treatment and the macroscopic damages, the oedema and a marker of the inflammation, myeloperoxidase (MPO), are quantified.
The experiments with the PAR-1 antagonists are carried out in two studies, relating to vorapaxar and CSI, respectively.
The colitis is induced by intra-colonical administration of 2,4,6-trinitrobenzenesulfonic acid (TNBS) (30 mg of TNBS in 0.25 ml of a 50% ethanol/NaCl solution) via a catheter (polyethylene (PE)-60) inserted 8 cm proximally from the anus.
Four groups of 10 rats receive an intra-colonical administration of TNBS, as well as a per os treatment of vorapaxar at the dose of 2.5 mg/kg/day or of CSI at doses of 10 and 40 mg/kg/day or of prednisolone (a compound proposed by the prior art for the treatment of IBDs) at the dose of 3 mg/kg/day. The per os treatments start 1 h before the intra-colonical administration of TNBS.
As a negative comparative example, 1 group of 10 rats receives an intra-colonical administration of TNBS and of the vorapaxar vehicle (phosphate buffered saline—PBS) or of the CSI vehicle (carboxymethyl cellulose—CMC at 1%) per os daily.
Moreover, 1 group of 6 control rats receives an intra-colonical administration of NaCl instead of TNBS.
The DAI score is determined as follows. The development of the disease is estimated on a daily basis. The consistence of the excrements, as well as the presence of blood in the faeces assessed with the Hemoccult® paper test, are respectively quantified by the seriousness scales of Table 3 hereinbelow. The obtained values are added together to obtain the DAI score.
The macroscopic damage score is assessed according to the protocol described in the publication of Comera et al., 1999, Dig. Dis. Sci. 44: 1448-1457, as follows. On day 7 after induction of the colitis, the rats are sacrificed by carbon dioxide CO2 inhalation, the colon (from the anus to the Caecum) is removed and the macroscopic damages are assessed according to the parameters observed and presented in Table 4 hereinbelow, to determine the macroscopic damage score.

[3] = system: human colon epithelial cells Caco2; assay: Epithelial cells repair: cicatrisation of a lesion on a Caco2 monolayer; format: cell-based
Experimental: A lesion is practiced using a sterilised forceps on human colon epithelial cells Caco2 in monolayer and at a confluence. Afterwards, the cells are rinsed twice with sterilised […] and then placed in an adequate culture medium. In this medium, vorapaxar at different concentrations (10 nM, 100 nM, 1 μM, 10 μM) or the vehicle (control) are added in independent culture dishes. The cicatrisation of the lesion is supervised and analysed using a confocal microscope for 28 h. The percentage of the lesioned surface of the lesion is determined for each tested condition, 4 h, 22 h and 28 h after the lesion. The obtained results are shown in FIG. 12, respectively in a/, b/ and c/.

[4] = system: nociceptive response induced by TNBS; assay: Nociceptive response (allodynia) by Von Frey filaments technique in TNBS colitis rats; format: in vivo, rat; settings: 2.5 mg/kg/day, 7 days after colitis induction
Experimental: as §1
The intensity of the pain is measured by the Von Frey filaments technique on days […], according to the protocol described in the publication of Auge et al., 2013, Eur. J. Pharmacol. 707: 32-40.
The effect on the nociceptive response, measured by Von Frey filaments technique according to the mass of Von Frey filaments, is shown in FIG. 10 for prednisolone and in FIG. 11 for vorapaxar.

| Structure (SMILES) | survival rate of animals [1] | disease activity index (DAI) ([2]; 2.5 mg/kg daily, 7th day) | apparition of oedema (thickness of the wall of the colon) ([2]; 2.5 mg/kg daily, 7th day, vs vehicle group) | disease activity index (DAI) ([2]; 2.5 mg/kg, as of the 1st day, vs vehicle group) | weight loss (body weight) ([2]; 2.5 mg/kg/day per os, as of the 2nd day) | macroscopic damage score ([2]; 2.5 mg/kg/day, day 7, vs vehicle group) | cicatrisation of the lesion (percentage of the lesioned surface) ([3]; Caco2, 4 h after the lesion, 100 nM, 1 μM and 10 μM) | cicatrisation of the lesion (percentage of the lesioned surface) ([3]; Caco2, 22 h after the lesion, 10 nM to 10 μM) | cicatrisation of the lesion (percentage of the lesioned surface) ([3]; Caco2, 28 h after the lesion, from 100 nm to 10 μM) | allodynia-type response (Von Frey) [4] |
| --- | --- | --- | --- | --- | --- | --- | --- | --- | --- | --- |
| COc1ccc(C[C@H](NC(=O)Nc2ccc3c(CN4CCCC4)cn(Cc4c(Cl)cccc4Cl)c3c2)C(=O)N[C@@H](CCCNC(=N)N)C(=O)NCc2ccccc2)cc1 [L-arininamide-4-methoxy-N-[[[1-[92,6-dichlorophenyl-methyl]-3-(1-pyrrolidinylmethyl)-1H-indol-6-yl]amino]carbonyl]-1-phenylalanyl-N-(phenylmethyl)-(5)] | improving the survival rate |  |  |  |  |  |  |  |  |  |
| CCOC(=O)N[C@@H]1CC[C@@H]2[C@@H](C1)C[C@H]1C(=O)O[C@H](C)[C@H]1[C@H]2/C=C/c1ccc(-c2cccc(F)c2)cn1 [vorapaxar, ethyl N-[(1R,3aR,4aR,6R,8aR,9S,9aS)-9-[(E)-2-[5-(3-fluorophenyl)pyridin-2-yl]ethenyl]-1-methyl-3-oxo-3a,4,4a,5,6,7,8,8a,9,9a-decahydro-1H-benzo[f][2]benzofuran-6-yl]carbamate] |  | significantly reduces | significantly reduces | significantly reduced | significantly reduces | significantly reduces | highly enhanced | amplifies the cicatrisation surface in a concentration-dependent way | complete cicatrisation | significantly inhibits |
